Source: patent US10781224B2, “Bis(oxymethyl)phosphinic acid and biogenic metal salts thereof as regulators of plant growth and development” (priority 2016, dated 2020)

Key:
Type in all cases: in vivo
[1] = test system: corn (Krasnodar 385 MV variety); assay: Corn seed treatment with BHMPA salts: germination energy and germination rate
Procedure, shortened: (§1)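 Corn, winter wheat and rice seeds (50 per dish, on filter paper) were soaked for 1 h in BHMPA or its metal salts at 1·10^−6-1·10^−12%, with water as control. Germination energy was read on day 4 and germination rate on day 8 for wheat and day 7 for rice and corn, following GOST 12038-84, as the mean of four replicates.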

[2] = test system: rice (Diamant variety); assay: Rice seed treatment with BHMPA salts: germination energy and germination rate; details: for Germination energy / Germination rate: rice
Procedure, shortened: as §1

[3] = test system: winter wheat (Vershin variety); assay: Winter wheat seed treatment with BHMPA salts: germinating power (length and mass of roots and sprouts)
Procedure, shortened: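 Seeds (50 per Petri dish on two layers of filter paper) soaked 1 h in BHMPA or its Ca, Mg, Na, Co, Mn, Cu or Zn salts at 1·10^−6-1·10^−12%, with water controls. Germination energy read on day 4, germination on day 8 (wheat) or day 7 (rice, corn), as % means of four replicates. Germinating power taken as root and sprout length plus wet and dry mass per 100 seedlings.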

[4] = 1·10^−9% solution, listed as Zn
[5] = comparative study vs Melaphen, 1·10^−8% solution
[6] = rice seed treatment, solution 1 · 10^−10%
[7] = comparative study, 1·10^−9% solution

SMILES: O=P([O-])(CO)CO.O=P([O-])(CO)CO.[Zn+2] [Zn-salt, Zinc BHMPA Salt]
- Germination energy ([1]; 1·10^−6% solution): 77.7%
- Germination rate ([1]; 1·10^−6% solution): 80.0%
- Germination energy ([1]; 1·10^−7% solution): 84.0%
- Germination rate ([1]; 1·10^−7% solution): 86.7%
- Germination energy ([1]; 1·10^−8% solution): 88.3%
- Germination rate ([1]; 1·10^−8% solution): 90.8%
- Germination energy ([1]; 1·10^−9% solution): 88.3%
- Germination rate ([1]; 1·10^−9% solution): 90.8%
- Germination energy [1, 4]: 84.2%
- Germination rate [1, 4]: 86.7%
- Germination energy ([1]; 1·10^−10% solution): 82.3%
- Germination rate ([1]; 1·10^−10% solution): 85.0%
- Germination energy ([1]; 1·10^−11% solution): 80.7%
- Germination rate ([1]; 1·10^−11% solution): 83.3%
- Germination energy ([1]; 1·10^−12% solution): 79.0%
- Germination rate ([1]; 1·10^−12% solution): 81.7%
- Germination energy [1, 5]: 88.0%
- Germination rate [1, 5]: 95.7%
- Germination energy, % [2, 6]: 89.5%
- Germination rate, % [2, 6]: 96.5%
- Germination energy ([2]; 1·10^−6% solution): 83.0%
- Germination rate ([2]; 1·10^−6% solution): 89.0%
- Germination energy ([2]; 1·10^−7% solution): 85.0%
- Germination rate ([2]; 1·10^−7% solution): 91.7%
- Germination energy ([2]; 1·10^−8% solution): 86.3%
- Germination rate ([2]; 1·10^−8% solution): 94.3%
- Germination energy ([2]; 1·10^−9% solution): 88.7%
- Germination rate ([2]; 1·10^−9% solution): 96.0%
- Germination energy ([2]; 1·10^−10% solution): 87.0%
- Germination rate ([2]; 1·10^−10% solution): 94.0%
- Germination energy ([2]; 1·10^−11% solution): 85.7%
- Germination rate ([2]; 1·10^−11% solution): 91.3%
- Germination energy ([2]; 1·10^−12% solution): 83.7%
- Germination rate ([2]; 1·10^−12% solution): 89.0%
- Germination energy [2, 5]: 89.5%
- Germination rate [2, 5]: 96.5%
- Length, root ([3]; 1·10^−6% solution): 9.1 cm
- Length, root, + % to control ([3]; 1·10^−6% solution): −6%
- Length, sprout ([3]; 1·10^−6% solution): 6.9 cm
- Length, sprout, + % to control ([3]; 1·10^−6% solution): −4%
- Mass, dry, root ([3]; 1·10^−6% solution): 0.60 g/100 plantlings
- Mass, dry, root, + % to control ([3]; 1·10^−6% solution): 5%
- Mass, dry, sprout ([3]; 1·10^−6% solution): 0.61 g/100 plantlings
- Mass, dry, sprout, + % to control ([3]; 1·10^−6% solution): −4%
- Mass, wet, root ([3]; 1·10^−6% solution): 2.58 g/100 plantlings
- Mass, wet, root, + % to control ([3]; 1·10^−6% solution): 0%
- Mass, wet, sprout ([3]; 1·10^−6% solution): 4.73 g/100 plantlings
- Mass, wet, sprout, + % to control ([3]; 1·10^−6% solution): −1%
- Length, root ([3]; 1·10^−7% solution): 10.2 cm
- Length, root, + % to control ([3]; 1·10^−7% solution): 5%
- Length, sprout ([3]; 1·10^−7% solution): 7.3 cm
- Length, sprout, + % to control ([3]; 1·10^−7% solution): 1%
- Mass, dry, root ([3]; 1·10^−7% solution): 0.62 g/100 plantlings
- Mass, dry, root, + % to control ([3]; 1·10^−7% solution): 9%
- Mass, dry, sprout ([3]; 1·10^−7% solution): 0.70 g/100 plantlings
- Mass, dry, sprout, + % to control ([3]; 1·10^−7% solution): 9%
- Mass, wet, root ([3]; 1·10^−7% solution): 2.61 g/100 plantlings
- Mass, wet, root, + % to control ([3]; 1·10^−7% solution): 1%
- Mass, wet, sprout ([3]; 1·10^−7% solution): 4.88 g/100 plantlings
- Mass, wet, sprout, + % to control ([3]; 1·10^−7% solution): 2.5%
- Length, root ([3]; 1·10^−8% solution): 10.3 cm
- Length, root, + % to control ([3]; 1·10^−8% solution): 6%
- Length, sprout ([3]; 1·10^−8% solution): 7.5 cm
- Length, sprout, + % to control ([3]; 1·10^−8% solution): 4%
- Mass, dry, root ([3]; 1·10^−8% solution): 0.64 g/100 plantlings
- Mass, dry, root, + % to control ([3]; 1·10^−8% solution): 12%
- Mass, dry, sprout ([3]; 1·10^−8% solution): 0.77 g/100 plantlings
- Mass, dry, sprout, + % to control ([3]; 1·10^−8% solution): 20%
- Mass, wet, root ([3]; 1·10^−8% solution): 2.77 g/100 plantlings
- Mass, wet, root, + % to control ([3]; 1·10^−8% solution): 7%
- Mass, wet, sprout ([3]; 1·10^−8% solution): 4.98 g/100 plantlings
- Mass, wet, sprout, + % to control ([3]; 1·10^−8% solution): 5%
- Length, root ([3]; 1·10^−9% solution): 10.9 cm
- Length, root, + % to control ([3]; 1·10^−9% solution): 12%
- Length, sprout ([3]; 1·10^−9% solution): 7.6 cm
- Length, sprout, + % to control ([3]; 1·10^−9% solution): 5.5%
- Mass, dry, root ([3]; 1·10^−9% solution): 0.69 g/100 plantlings
- Mass, dry, root, + % to control ([3]; 1·10^−9% solution): 21%
- Mass, dry, sprout ([3]; 1·10^−9% solution): 0.82 g/100 plantlings
- Mass, dry, sprout, + % to control ([3]; 1·10^−9% solution): 28%
- Mass, wet, root ([3]; 1·10^−9% solution): 3.58 g/100 plantlings
- Mass, wet, root, + % to control ([3]; 1·10^−9% solution): 38%
- Mass, wet, sprout ([3]; 1·10^−9% solution): 5.13 g/100 plantlings
- Mass, wet, sprout, + % to control ([3]; 1·10^−9% solution): 8%
- Length, root ([3]; 1·10^−10% solution): 10.8 cm
- Length, root, + % to control ([3]; 1·10^−10% solution): 11%
- Length, sprout ([3]; 1·10^−10% solution): 7.6 cm
- Length, sprout, + % to control ([3]; 1·10^−10% solution): 5.5%
- Mass, dry, root ([3]; 1·10^−10% solution): 0.65 g/100 plantlings
- Mass, dry, root, + % to control ([3]; 1·10^−10% solution): 14%
- Mass, dry, sprout ([3]; 1·10^−10% solution): 0.80 g/100 plantlings
- Mass, dry, sprout, + % to control ([3]; 1·10^−10% solution): 25%
- Mass, wet, root ([3]; 1·10^−10% solution): 3.24 g/100 plantlings
- Mass, wet, root, + % to control ([3]; 1·10^−10% solution): 25%
- Mass, wet, sprout ([3]; 1·10^−10% solution): 4.96 g/100 plantlings
- Mass, wet, sprout, + % to control ([3]; 1·10^−10% solution): 4%
- Length, root ([3]; 1·10^−11% solution): 10.3 cm
- Length, root, + % to control ([3]; 1·10^−11% solution): 6%
- Length, sprout ([3]; 1·10^−11% solution): 7.3 cm
- Length, sprout, + % to control ([3]; 1·10^−11% solution): 1%
- Mass, dry, root ([3]; 1·10^−11% solution): 0.63 g/100 plantlings
- Mass, dry, root, + % to control ([3]; 1·10^−11% solution): 10.5%
- Mass, dry, sprout ([3]; 1·10^−11% solution): 0.74 g/100 plantlings
- Mass, dry, sprout, + % to control ([3]; 1·10^−11% solution): 16%
- Mass, wet, root ([3]; 1·10^−11% solution): 2.8 g/100 plantlings
- Mass, wet, root, + % to control ([3]; 1·10^−11% solution): 8%
- Mass, wet, sprout ([3]; 1·10^−11% solution): 4.92 g/100 plantlings
- Mass, wet, sprout, + % to control ([3]; 1·10^−11% solution): 3%
- Length, root ([3]; 1·10^−12% solution): 10.1 cm
- Length, root, + % to control ([3]; 1·10^−12% solution): 4%
- Length, sprout ([3]; 1·10^−12% solution): 7.2 cm
- Length, sprout, + % to control ([3]; 1·10^−12% solution): 0%
- Mass, dry, root ([3]; 1·10^−12% solution): 0.62 g/100 plantlings
- Mass, dry, root, + % to control ([3]; 1·10^−12% solution): 9%
- Mass, dry, sprout ([3]; 1·10^−12% solution): 0.63 g/100 plantlings
- Mass, dry, sprout, + % to control ([3]; 1·10^−12% solution): −1%
- Mass, wet, root ([3]; 1·10^−12% solution): 2.65 g/100 plantlings
- Mass, wet, root, + % to control ([3]; 1·10^−12% solution): 2%
- Mass, wet, sprout ([3]; 1·10^−12% solution): 4.90 g/100 plantlings
- Mass, wet, sprout, + % to control ([3]; 1·10^−12% solution): 3%
- Length, root [3, 7]: 9.5 cm
- Length, root, + % to control [3, 7]: 9%
- Length, sprout [3, 7]: 6.3 cm
- Length, sprout, + % to control [3, 7]: 2%
- Mass, dry, root [3, 7]: 0.68 g/100 plantlings
- Mass, dry, root, + % to control [3, 7]: 10%
- Mass, dry, sprout [3, 7]: 0.55 g/100 plantlings
- Mass, dry, sprout, + % to control [3, 7]: 8%
- Mass, wet, root [3, 7]: 5.18 g/100 plantlings
- Mass, wet, root, + % to control [3, 7]: 43%
- Mass, wet, sprout [3, 7]: 4.91 g/100 plantlings
- Mass, wet, sprout, + % to control [3, 7]: 24%
